Experimental data as given in ChEMBL document CHEMBL1914426, “Phospshoinositide 3-kinase (PI3K)/mammalian target of rapamycin (mTOR) dual inhibitors: discovery and structure-activity relationships of a series of quinoline and quinoxaline derivatives” (J Med Chem, 2011).

Experiments:
[1] = biological target: T1, Phosphatidylinositol 4,5-bisphosphate 3-kinase catalytic subunit alpha isoform (Homo sapiens, UniProt P42336)
[2] = biological target: T1, Phosphatidylinositol 4,5-bisphosphate 3-kinase catalytic subunit alpha isoform; remark: listed apart in the source
[3] = biological target: Phosphatidylinositol 4,5-bisphosphate 3-kinase catalytic subunit gamma isoform (Homo sapiens, UniProt P48736); design: species or system Sf9
Phosphatidylinositol 4,5-bisphosphate 3-kinase catalytic subunit gamma isoform, sequence (P48736 whole entry, canonical isoform): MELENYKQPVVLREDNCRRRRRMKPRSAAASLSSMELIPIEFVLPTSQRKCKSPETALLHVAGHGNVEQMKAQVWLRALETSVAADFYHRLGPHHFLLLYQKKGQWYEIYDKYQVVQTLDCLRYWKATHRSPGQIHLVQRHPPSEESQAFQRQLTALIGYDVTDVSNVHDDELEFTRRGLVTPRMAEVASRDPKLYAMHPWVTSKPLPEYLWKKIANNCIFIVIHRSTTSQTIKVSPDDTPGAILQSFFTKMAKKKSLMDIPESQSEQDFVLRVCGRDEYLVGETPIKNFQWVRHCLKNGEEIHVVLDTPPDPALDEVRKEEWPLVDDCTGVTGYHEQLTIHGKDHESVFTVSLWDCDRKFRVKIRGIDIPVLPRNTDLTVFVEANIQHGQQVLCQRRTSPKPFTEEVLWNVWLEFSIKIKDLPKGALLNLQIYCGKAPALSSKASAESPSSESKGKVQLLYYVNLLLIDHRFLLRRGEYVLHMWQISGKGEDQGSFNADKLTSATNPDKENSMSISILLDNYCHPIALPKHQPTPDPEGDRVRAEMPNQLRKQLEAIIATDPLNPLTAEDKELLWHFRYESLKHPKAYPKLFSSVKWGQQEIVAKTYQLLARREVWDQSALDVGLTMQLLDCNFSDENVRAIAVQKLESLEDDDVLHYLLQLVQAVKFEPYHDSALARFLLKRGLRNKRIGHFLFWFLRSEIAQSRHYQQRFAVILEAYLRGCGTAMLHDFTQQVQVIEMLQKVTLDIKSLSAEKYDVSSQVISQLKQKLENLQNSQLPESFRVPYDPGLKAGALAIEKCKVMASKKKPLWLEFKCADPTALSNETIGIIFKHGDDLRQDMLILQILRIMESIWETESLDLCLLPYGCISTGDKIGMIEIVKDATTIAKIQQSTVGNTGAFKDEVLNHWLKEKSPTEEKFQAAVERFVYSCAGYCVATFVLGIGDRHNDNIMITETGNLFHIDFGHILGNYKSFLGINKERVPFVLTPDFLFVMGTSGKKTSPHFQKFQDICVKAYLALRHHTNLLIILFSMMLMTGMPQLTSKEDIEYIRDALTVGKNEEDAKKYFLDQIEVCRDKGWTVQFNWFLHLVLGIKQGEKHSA

[4] = biological target: Phosphatidylinositol 4,5-bisphosphate 3-kinase catalytic subunit beta isoform (Homo sapiens, UniProt P42338)
Phosphatidylinositol 4,5-bisphosphate 3-kinase catalytic subunit beta isoform, sequence (P42338 whole entry, canonical isoform): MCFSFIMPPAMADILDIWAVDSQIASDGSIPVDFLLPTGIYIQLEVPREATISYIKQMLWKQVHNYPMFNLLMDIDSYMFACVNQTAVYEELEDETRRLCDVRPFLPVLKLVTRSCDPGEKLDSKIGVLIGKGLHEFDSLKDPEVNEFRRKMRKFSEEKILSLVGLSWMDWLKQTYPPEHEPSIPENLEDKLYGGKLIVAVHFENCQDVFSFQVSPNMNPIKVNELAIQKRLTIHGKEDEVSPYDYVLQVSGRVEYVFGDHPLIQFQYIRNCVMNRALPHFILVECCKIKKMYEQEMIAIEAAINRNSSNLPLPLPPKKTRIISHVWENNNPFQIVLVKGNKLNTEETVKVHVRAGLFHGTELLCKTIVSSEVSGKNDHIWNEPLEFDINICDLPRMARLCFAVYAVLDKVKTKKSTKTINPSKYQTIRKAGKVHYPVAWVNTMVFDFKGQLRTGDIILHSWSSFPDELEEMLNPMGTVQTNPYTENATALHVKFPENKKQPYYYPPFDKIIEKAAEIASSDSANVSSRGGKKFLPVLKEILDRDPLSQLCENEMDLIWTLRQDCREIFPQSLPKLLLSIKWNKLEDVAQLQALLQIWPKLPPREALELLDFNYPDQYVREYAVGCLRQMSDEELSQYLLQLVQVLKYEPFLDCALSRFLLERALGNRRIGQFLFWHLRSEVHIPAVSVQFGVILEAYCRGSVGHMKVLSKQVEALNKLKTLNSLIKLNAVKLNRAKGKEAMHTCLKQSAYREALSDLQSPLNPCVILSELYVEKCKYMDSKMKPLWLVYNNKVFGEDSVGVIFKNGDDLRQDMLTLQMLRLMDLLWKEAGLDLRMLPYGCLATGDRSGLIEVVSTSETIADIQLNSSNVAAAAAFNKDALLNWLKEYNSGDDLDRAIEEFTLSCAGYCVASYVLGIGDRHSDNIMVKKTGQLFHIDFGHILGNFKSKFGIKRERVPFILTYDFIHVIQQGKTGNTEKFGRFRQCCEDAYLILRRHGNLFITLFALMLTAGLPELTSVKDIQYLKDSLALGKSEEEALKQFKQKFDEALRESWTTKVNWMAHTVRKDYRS

[5] = biological target: T2, Phosphatidylinositol 4,5-bisphosphate 3-kinase catalytic subunit delta isoform (Homo sapiens, UniProt O00329)
T2 sequence (O00329 whole entry): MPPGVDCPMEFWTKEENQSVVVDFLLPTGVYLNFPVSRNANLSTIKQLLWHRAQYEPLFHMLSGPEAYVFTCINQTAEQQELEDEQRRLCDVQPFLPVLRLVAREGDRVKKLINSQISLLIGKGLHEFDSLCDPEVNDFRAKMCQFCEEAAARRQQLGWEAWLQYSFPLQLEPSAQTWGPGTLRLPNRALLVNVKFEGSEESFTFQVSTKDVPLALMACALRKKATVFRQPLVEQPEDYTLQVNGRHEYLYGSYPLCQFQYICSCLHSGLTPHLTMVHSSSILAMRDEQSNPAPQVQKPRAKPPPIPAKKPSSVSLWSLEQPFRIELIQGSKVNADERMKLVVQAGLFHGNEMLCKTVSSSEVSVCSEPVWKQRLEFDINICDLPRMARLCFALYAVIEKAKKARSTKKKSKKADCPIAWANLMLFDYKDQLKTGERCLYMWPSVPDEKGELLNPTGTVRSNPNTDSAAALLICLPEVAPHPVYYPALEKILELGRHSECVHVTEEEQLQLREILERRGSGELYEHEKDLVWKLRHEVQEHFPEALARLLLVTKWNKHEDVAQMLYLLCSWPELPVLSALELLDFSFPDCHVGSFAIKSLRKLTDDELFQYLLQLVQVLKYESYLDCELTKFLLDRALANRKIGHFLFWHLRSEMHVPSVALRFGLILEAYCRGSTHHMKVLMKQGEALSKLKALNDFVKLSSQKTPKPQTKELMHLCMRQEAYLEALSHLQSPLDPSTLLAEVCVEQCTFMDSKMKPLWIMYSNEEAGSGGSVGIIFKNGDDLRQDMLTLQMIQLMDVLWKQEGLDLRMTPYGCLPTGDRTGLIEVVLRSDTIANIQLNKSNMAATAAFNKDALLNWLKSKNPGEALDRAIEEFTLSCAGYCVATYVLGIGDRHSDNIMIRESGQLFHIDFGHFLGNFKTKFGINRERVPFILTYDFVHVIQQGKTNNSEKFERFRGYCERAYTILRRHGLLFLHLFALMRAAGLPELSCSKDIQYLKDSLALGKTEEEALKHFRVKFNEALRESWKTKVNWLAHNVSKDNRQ

Rattus norvegicus = organism: Rattus norvegicus; settings: in vivo, iv, 1 mg/kg
Description: Hepatic blood flow in Sprague-Dawley rat 1 mg/kg, iv

in vitro [6] = settings: human, liver microsomes
Description: Clearance in human liver microsomes assessed as compound remaining at 1 uM after 30 mins

in vitro [7] = settings: rat, liver microsomes
Description: Clearance in rat liver microsomes assessed as compound remaining at 1 uM after 30 mins

T1 sequence (P42336 whole entry, canonical isoform): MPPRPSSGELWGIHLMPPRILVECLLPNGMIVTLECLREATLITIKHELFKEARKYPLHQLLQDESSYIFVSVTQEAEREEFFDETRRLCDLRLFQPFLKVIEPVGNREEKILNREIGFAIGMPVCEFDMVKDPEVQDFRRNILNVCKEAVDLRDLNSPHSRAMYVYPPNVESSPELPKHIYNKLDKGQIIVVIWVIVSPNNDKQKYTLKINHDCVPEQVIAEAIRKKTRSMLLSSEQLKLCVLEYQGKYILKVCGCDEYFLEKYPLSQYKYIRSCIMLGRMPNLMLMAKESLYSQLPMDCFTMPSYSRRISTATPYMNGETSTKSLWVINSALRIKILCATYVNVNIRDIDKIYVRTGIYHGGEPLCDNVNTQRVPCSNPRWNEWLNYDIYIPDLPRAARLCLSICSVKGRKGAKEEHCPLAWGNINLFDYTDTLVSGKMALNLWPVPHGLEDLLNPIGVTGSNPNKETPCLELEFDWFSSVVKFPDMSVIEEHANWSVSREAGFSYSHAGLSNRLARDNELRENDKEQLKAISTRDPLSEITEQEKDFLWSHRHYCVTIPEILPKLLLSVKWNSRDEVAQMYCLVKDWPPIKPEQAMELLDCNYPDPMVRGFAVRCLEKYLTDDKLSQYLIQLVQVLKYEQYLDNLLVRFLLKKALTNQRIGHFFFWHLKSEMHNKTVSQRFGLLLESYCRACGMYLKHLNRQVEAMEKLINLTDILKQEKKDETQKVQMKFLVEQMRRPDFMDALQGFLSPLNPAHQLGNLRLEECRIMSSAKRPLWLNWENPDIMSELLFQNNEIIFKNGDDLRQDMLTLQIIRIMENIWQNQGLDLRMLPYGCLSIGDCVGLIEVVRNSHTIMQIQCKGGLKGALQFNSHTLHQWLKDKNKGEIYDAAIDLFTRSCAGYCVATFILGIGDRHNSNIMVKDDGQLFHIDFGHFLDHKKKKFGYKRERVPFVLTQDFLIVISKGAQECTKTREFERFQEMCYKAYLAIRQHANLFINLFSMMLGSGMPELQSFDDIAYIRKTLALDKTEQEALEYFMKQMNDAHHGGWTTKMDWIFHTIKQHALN

SMILES	Ki [1]	IC50 [2]	further results
O=S(=O)(Nc1cc(-c2ccc3ncccc3c2)cnc1Cl)c1ccc(F)cc1	2.1 nM	377 nM	
O=S(=O)(Nc1cc(-c2cc3cccnc3cn2)cnc1Cl)c1ccc(F)cc1	200 nM	> 10000 nM	
O=S(=O)(Nc1cc(-c2cnc3ncccc3c2)cnc1Cl)c1ccc(F)cc1	856 nM		
O=S(=O)(Nc1cc(-c2ccc3nnccc3c2)cnc1Cl)c1ccc(F)cc1	38 nM	1920 nM	
COCCNc1ccnc2ccc(-c3cnc(Cl)c(NS(=O)(=O)c4ccc(F)cc4)c3)cc12	69 nM	1020 nM	
CN(C)c1ccnc2ccc(-c3cnc(Cl)c(NS(=O)(=O)c4ccc(F)cc4)c3)cc12	5.7 nM	223 nM	
O=S(=O)(Nc1cc(-c2ccc3nccc(N4CCC(O)CC4)c3c2)cnc1Cl)c1ccc(F)cc1	0.9 nM	150 nM	
O=S(=O)(Nc1cc(-c2ccc3nccc(N4CCN(Cc5ccccc5)CC4)c3c2)cnc1Cl)c1ccc(F)cc1	1 nM	136 nM	
O=S(=O)(Nc1cc(-c2ccc3nccc(N4CCN(Cc5ccncc5)CC4)c3c2)cnc1Cl)c1ccc(F)cc1	0.9 nM	18 nM	IC50 [3]: 6.5 nM; IC50 [4]: 15 nM; IC50 [5]: 6 nM; IC50 [1]: 4.6 nM; QH (Rattus norvegicus): 0.6%; microsomal CLint at 0.5 h, 1 µM (in vitro [6]): 247 µL/min/mg; microsomal CLint at 0.5 h, 1 µM (in vitro [7]): > 399 µL/min/mg
O=S(=O)(Nc1cc(-c2ccc3nccc(-c4ccccc4)c3c2)cnc1Cl)c1ccc(F)cc1	1.3 nM	127 nM	
